Measurements: patent publication US20250268829A1, “INHALED ANTIBACTERIAL FORMULATIONS FOR TREATING LUNG INFECTIONS” (Board of Regents, The University of Texas System, priority 2022, published 2025)
Converted amounts (≈) assume the structure as drawn.

What was measured:
Mycobacterium abscessus = assay: In vitro efficacy (MIC) against Mycobacterium abscessus; format: cell-based; details: Mycobacteroides abscessus, Mab in Middlebrook 7H9 broth; read-out: minimal inhibitory concentration (MIC)
Description: Mab was cultured in Middlebrook 7H9 liquid broth for 48 hours. 100 μL of inoculum was then added to 96 well plate with 50 μL of different concentrations of Tigecycline (0.1 to 240 μg/mL) (FIG. 3).

Calu-3 cell monolayer = assay: Drug permeability across air-liquid interface monolayer; format: in vitro ADME
Description: Calu-3 cells were plated at a cell density of 33,000 cells/well in 24-well transwell inserts on the apical side and 500 μL media was added to the basolateral side. 48 hours after plating the cells, the cells were airlifted (i.e the media from the apical and basolateral side was aspirated and only the basolateral side was replaced with media).
Cell integrity of the Calu-3 monolayer was measured every other day after airlifting. Briefly, the media from the basolateral side was aspirated. 200 μL of Hank's balanced salt solution (HBSS) buffer was added to the apical side and 500 μL of HBSS was added to the basolateral side. The transepithelial electrical resistance (TEER) was measured using an epithelial Voltohmmeter. The short electrode was dipped into the buffer on the apical side and the longer electrode was dipped into the buffer on the basolateral side. Using the measured value the TEER was calculated using equation (2): […]
The permeation experiments were carried out between days 5-7 after airlifting when the TEER values were ˜700Ω which indicates epithelial cell integrity and the absence of a leaky monolayer. The amount of drug transported across the cell layer were measured as follows: Milled and unmilled powders of tigecycline were dissolved in 200 μL of HBSS at a concentration of 10 μM and 20 μM. The media in the basolateral side was replaced by HBSS. 10 μL sample was collected from the basolateral side at the following intervals: 5 min, 15 min, 30 min, 45 min, 60 min, 2 hours, 4 hours, 6 hours, 8 hours, 12 hours, and 24 hours. After each aliquot, 10 μL of HBSS buffer was replaced into the basolateral chamber. This procedure was repeated to measure the permeability from the basolateral side to the apical side where samples were aliquoted from the apical side. The apparent permeability can be calculated as follows:
[formula] • Where • dQ/dt=Concentration flux • A=Surface area • Co=initial concentration

S. maltophilia [1] = assay: Minimum inhibitory concentration, OD 600; format: cell-based, Stenotrophomonas maltophilia
Description: (§1) Stenotrophomonas maltophilia was obtained from American Type Culture Collection (ATCC, Manassas, VA) (ATCC 13637). S. maltophilia dried pellet was reconstituted in nutrient broth and frozen until further use. An inoculation loop was used to collect S. maltophilia from the stock solution and was streaked onto nutrient agar plates. The plates were incubated at 37° C. for 24 hours. At the 24-hour point, an inoculation loop was used to transfer bacteria from the plate to 5 mL of liquid nutrient broth. The bacteria in the liquid medium were left overnight on a shaker at 37° C.
Liquid bacterial culture was prepared as described above. 200 μL of the overnight liquid culture was added to 96 well plates. Varying concentrations of TIG were added to the 96 well plates ranging from 0.12 μg/mL to 64 μg/mL. All TIG concentrations were tested in triplicate. The well plate was allowed to incubate at 37° C. for 24 hours, and the MIC was determined using the OD 600 values.

[2] = HPLC stability upon aerosolization and storage; format: physicochemical; details: capsule (before aerosolization) and NGI stage 4 (after aerosolization) samples
Description: Stability upon aerosolization was assessed using High-Performance Liquid Chromatography (HPLC) by the method described by Lucelia Magalhaes da Silva and Herida Regina Nunes Salgado in Validation of a Stability-Indicating RP-LC Method for the Determination of Tigecycline in Lyophilized Powder, J. Chromatogr. Sci. 51:192-199 (2012). The powder accumulated on Stage 4 (after aerosolization), as well as the capsule (before aerosolization) after running the NGI, was dissolved in a buffer containing 0.015 M oxalic acid and 0.015 M sodium phosphate monobasic at pH 7. The mobile phase used was 75 (0.015 M oxalic acid and 0.015 M sodium phosphate monobasic at pH 7): 25 (Acetonitrile). The flow rate was kept at 1 mL/min and UV absorbance was measured at 245 nm. A forcefully degraded sample (tigecycline left in water for 1 week at RT without protection from light) was also incorporated as a control to assess the ability of the method to detect degradants.
The milled powder was stored for 30 days at 25° C./60% RH and 45° C./75% RH, as specified by the International Council for Harmonization (ICH) intermediate and accelerated stability conditions using sealed amber vials. At the 30-day and 6 month time point, the powder was characterized for its physicochemical properties, stability, and aerosol performance. […]

S. maltophilia biofilm = assay: Biofilm eradication (MBEC), XTT assay; format: cell-based, Stenotrophomonas maltophilia
Description: as §1
S. maltophilia was grown as described above. 200 μL of the bacteria in nutrient broth was added onto 96 well plates for varying amounts of time ranging from 1 day to 5 days. The bacterial biomass at each time point was assessed using crystal violet assay. Briefly, the liquid media was aspirated at each time point, and the wells were washed twice with 200 μL of phosphate-buffered saline (PBS). […] The bound dye was then solubilized in 33% v/v acetic acid, and the absorbance was measured at 595 nm. […]
200 μL of this standardized culture was added to 96 well plates and allowed to grow overnight at 37° C. […] At 24 hours, the viability of the bacteria was evaluated using the XTT assay. […] After 3 hours, the absorbance was measured at 490 nm.

S. maltophilia [3] = details: cited from earlier work
Calu-3 cells = assay: Cell viability, MTT assay; format: cell-based
Description: Calu-3 cells between passage 14-17 were grown in Dulbecco's Modified Eagle Medium (DMEM)+10% Fetal Bovine Serum (FBS)+1% Non-Essential Amino Acids (NEAA)+1% Penicillin Streptomycin (PS)+1% Sodium pyruvate in a 75 cm^2 flask. The media was changed every other day.
To assess the toxicity of the tigecycline powders, Calu-3 cells were seeded into 96-well tissue culture plates at a seeding density of 9000 cells/well. The cells were cultured overnight in media. […] The powders were dissolved in media and 100 μL of each concentration was added to the wells. Control wells containing only media were also set up. […] […] At 3 hours, MTT reagent/culture media was removed and 150 μl of MTT dissolving solvent was added to the well. The well-plate was wrapped in foil and kept on an electronic shaker for 15 minutes. The absorbance was then read at 590 nm using the Tecan microplate reader (Tecan Global Headquarters, Männedorf, Switzerland).

[4] = Water content by thermogravimetric analysis (TGA); format: physicochemical; details: baseline
Description: The water content of the powders was assessed using thermogravimetric analysis (TGA). About 5 mg of powder was loaded into a 70 μL alumina crucible. The samples were heated from 35-350° C. at a rate of 10° C./min.
(§2) The milled powder was stored for 30 days at 25° C./60% RH and 45° C./75% RH, as specified by the International Council for Harmonization (ICH) intermediate and accelerated stability conditions using sealed amber vials. At the 30-day and 6 month time point, the powder was characterized for its physicochemical properties, stability, and aerosol performance. The results obtained from day 30 and 6 months were compared to baseline measurements to declare storage stability.

[5] = Geometric particle size distribution, HELOS laser diffraction with RODOS dispersion; format: physicochemical; details: Avg.
Description: HELOS laser diffraction instrument (Sympatec Americas, Pennington, NJ) using the RODOS dispersion feature was used to assess the geometric particle size distribution of both the milled and unmilled powders. The particle size distribution was measured at different pressures from 0.5-3 bar to analyze the effect of dispersion pressure on particle deaggregation. Measurements that were between 5% and 25% optical density were averaged to determine particle size distribution.

[6] = True density, helium multipycnometer; format: physicochemical
Description: The true density of the processed powders was measured using a helium multipycnometer (Quantachrome Instruments, Boynton Beach, FL) with a micro-sample cell. The sample cell was filled to at least 75% of the total volume with milled or unmilled tigecycline powder. Using equation (1), the pressure of both the reference cell (P1) and sample cell (P2) was determined, and the true volume of the sample was calculated as follows:
For the micro-sample cell utilized, Vc was calibrated at 11.76156 cm^3 and VR=6.34216 cm^3. The sample weight was divided by the measured true volume to obtain the true density. Measurements were repeated until the standard deviation of ten consecutive true density measurements was less than 0.01 g/mL.

[7] = In vitro aerosol performance, Next Generation Impactor (NGI); format: physicochemical; details: for Emitted Dose / Emitted Fraction / GSD / MMAD / RF (<5 μm): 4 kPa; for RF (<5 μm): percent of total dose
Description: The in vitro aerosol performance of the milled and unmilled powders was assessed using Next Generation Impactor (NGI) with a low and high resistance DPI (RS01 Monodose DPI (RS01 DPI; Plastiape). About 10 mg of the powder was added to size 3 hydroxypropyl methylcellulose (HPMC) capsules and the analysis was performed for a length of time sufficient to draw 4 L of air through the NGI, as per USP requirements. The pressure drop across the system was equivalent to either 4 kPa or 1 kPa. The flow rates required across the pressure drop to draw 4 L of air through the NGI, as per USP requirements, were 93 L/min for 4 kPa and 47.6 L/min for 1 kPa. The aerosol performance was compared between the low resistance device and the high resistance device. Also, the performance of the Plastiape devices was compared to that of Handihaler, a commercially used DPI. TIG deposited in each stage was dissolved in a buffer containing 0.015 M oxalic acid and 0.015 M sodium phosphate monobasic at pH 7 and quantified using a UV-Visible spectrophotometer (Tecan Systems, Inc., San Jose, CA, USA) at 245 nm. The aerodynamic particle size metrics that were calculated include emitted dose (ED), emitted fraction (EF), the respiratory fraction (RF), fine particle dose (FPD), fine particle fraction (FPF), mass median aerodynamic diameter (MMAD), and geometric standard deviation (GSD). […]

[8] = Water sorption by dynamic vapor sorption (DVS); format: physicochemical; details: baseline
Description: Dynamic vapor sorption (DVS) analysis of the powders was performed using an Automated Water Sorption Analyzer (Surface Measurement Systems, London, UK). Briefly, 5-10 mg of milled and unmilled TIG powder was used as the sample. The samples were allowed to equilibrate under nitrogen until dm/dt<0.002%. Water sorption was analyzed as 10 steps from 0% relative humidity (RH) to 100% RH where step dm/dt was set at 0.075% at 10% increments in RH.
as §2

CN(C)c1cc(NC(=O)CNC(C)(C)C)c(O)c2c1C[C@H]1C[C@H]3[C@H](N(C)C)C(O)=C(C(N)=O)C(=O)[C@@]3(O)C(O)=C1C2=O [Tigecycline, tigecycline]
MIC (Mycobacterium abscessus): > 4 µg/mL | tigecycline permeated through the cell monolayer (Calu-3 cell monolayer; apical to basolateral, across a 12-hour time point, HPLC limit of detection 1 μM): less than 1 μM | drug remaining in the apical (donor) side (Calu-3 cell monolayer; at the end of the experiment): ~100% | permeability across the cell monolayer (Calu-3 cell monolayer; basolateral to apical direction): impermeability | inhibition of growth of S. maltophilia (S. maltophilia [1]; 0.1 μg/mL and 0.25 μg/mL): failed to inhibit bacterial growth | OD 600 value normalized to control (S. maltophilia [1]; 0.12 and 0.25 μg/mL): ~1 | MIC (S. maltophilia [1]; Stenotrophomonas maltophilia, 24 hours, OD 600, read-out: Minimum Inhibitory Concentrations (MIC)): 0.5 µg/mL (≈ 0.854 µM) | OD 600 values versus control (S. maltophilia [1]; concentrations >0.5 μg/mL): significantly lower than that of control | inhibition of growth of S. maltophilia (S. maltophilia [1]; concentrations equal to or greater than 0.5 μg/mL): completely | degradation peaks in HPLC chromatograms [2]: none of the degradation peaks were observed | inhibition of biofilm formation (S. maltophilia biofilm; concentrations above 0.5 μM, 24 hours): ~85% | inhibition of S. maltophilia biofilm formation (S. maltophilia biofilm; concentrations lower than 0.5 μM): could not effectively inhibit | susceptibility of S. maltophilia (S. maltophilia [3]): more than 90% | effect on Calu-3 cell viability (Calu-3 cells; 5 mM and 7.5 mM, 4-hour and 8-hour point): significant cell death | concentration up to which Calu-3 cells were viable (Calu-3 cells; 4-hour and 8-hour point, submerged culture): 2500 µM | maximum concentration that allowed the cells to maintain their viability (Calu-3 cells; 12-hour point): 125 µM | maximum concentration that allowed the cells to maintain their viability (Calu-3 cells; 24 hours): 25 µM

CN(C)c1cc(NC(=O)CNC(C)(C)C)c(O)c2c1C[C@H]1C[C@H]3[C@H](N(C)C)C(O)=C(C(N)=O)C(=O)[C@@]3(O)C(O)=C1C2=O [Unmilled tigecycline, tigecycline]
Water content [4]: negligible | Dv90 ([5]; dispersing pressure 0.5 bar): 18.38 μm | Dv90 ([5]; dispersing pressure 1 bar): 16.29 μm | Dv90 ([5]; dispersing pressure 2 bar): 10.79 μm | Dv90 ([5]; dispersing pressure 3 bar): 9.49 μm | Dv90 ([5]; dispersing pressure 3 bar, listed as unmilled powders): 9.48 μm | True Density [6]: 1.282 ± 0.0004 g/mL | Emitted Dose ([7]; Handihaler): 7.66 ± 5.11 mg | Emitted Fraction ([7]; Handihaler): 64.60 ± 0.23% | GSD ([7]; Handihaler): 1.13 ± 0.11 | MMAD ([7]; Handihaler): 8.27 ± 1.41 μm | RF (<5 μm) ([7]; Handihaler): 16.44 ± 2.12% | Emitted Dose ([7]; LR Plastiape): 8.48 ± 0.25 mg | Emitted Fraction ([7]; LR Plastiape): 90.20 ± 0.27% | GSD ([7]; LR Plastiape): 1.25 ± 0.01 | MMAD ([7]; LR Plastiape, listed as Unmilled): 5.73 ± 0.52 μm | MMAD ([7]; LR Plastiape, listed as unmilled tigecycline): 5.73±0.52 μm | RF (<5 μm) ([7]; LR Plastiape): 28.59 ± 1.56% | emitted dose deposited in the capsule, device, throat and early NGI stages ([7]; pressure drop of 4 kPa): > 65% | Fine Particle Dose (FPD) ([7]; pressure drop of 4 kPa, before storage): 2.57 ± 0.06 mg | fine particle fraction (FPF) ([7]; pressure drop of 4 kPa, before storage, particles below 5 μm with respect to emitted dose): 31.70±1.83% | hygroscopicity [8]: not hygroscopic
